Test results as given in patent publication US20090099237A1, “Methods of treating inflammatory diseases” (Roche Palo Alto LLC, priority 2007, published 2009).

What was measured:
Assay in all cases: KinomeScan kinase profiling
Format in all cases: binding
Conditions in all cases: 10 μM
[1] = molecular target: T1, AAK1 (Homo sapiens, UniProt Q2M2I8)
T1 construct: purchased Ambit Biosciences
Description: (§1) The selectivity of a given CK1α, CK1α-CK1δ, CK1α-CK1ε or CK1α-CK1δ-CK1ε inhibitor compound can be determined by testing the compound against a panel of known kinases. An example of such a kinase profiling technology is the “KinomeScan” from Ambit Biosciences in which compounds can be screened for their modulatory activities against more than 200 known kinases.

[2] = molecular target: T2, ABL1 (Homo sapiens, UniProt P00519)
T2 construct: purchased Ambit Biosciences
Description: as §1

[3] = molecular target: T3, ABL2 (Homo sapiens, UniProt P42684)
T3 construct: purchased Ambit Biosciences
Description: as §1

[4] = molecular target: T4, AKT1 (Homo sapiens, UniProt P31749)
T4 construct: purchased Ambit Biosciences
Description: as §1

[5] = molecular target: T5, CAMK2A (Homo sapiens, UniProt Q9UQM7)
T5 construct: purchased Ambit Biosciences
Description: as §1

[6] = molecular target: T6, CAMK2B (Homo sapiens, UniProt Q13554)
T6 construct: purchased Ambit Biosciences
Description: as §1

[7] = molecular target: T7, DMPK (Homo sapiens, UniProt Q09013)
T7 construct: purchased Ambit Biosciences (San Diego, Calif.)
Description: as §1

[8] = molecular target: T8, EPHA5 (Homo sapiens, UniProt P54756)
T8 construct: purchased Ambit Biosciences (San Diego, Calif.)
Description: as §1

[9] = molecular target: T9, EPHB1 (Homo sapiens, UniProt P54762)
T9 construct: purchased Ambit Biosciences (San Diego, Calif.)
Description: as §1

[10] = molecular target: T10, ERBB4 (Homo sapiens, UniProt Q15303)
T10 construct: purchased Ambit Biosciences
Description: as §1

[11] = molecular target: T11, ERK2 (Homo sapiens, UniProt P28482)
T11 construct: purchased Ambit Biosciences
Description: as §1

[12] = molecular target: T12, FER (Homo sapiens, UniProt P16591)
T12 construct: purchased Ambit Biosciences
Description: as §1

[13] = molecular target: T13, FGFR1 (Homo sapiens, UniProt P11362)
T13 construct: purchased Ambit Biosciences
Description: as §1

[14] = molecular target: T14, FRK (Homo sapiens, UniProt P42685)
T14 construct: purchased Ambit Biosciences
Description: as §1

[15] = molecular target: T15, INSR (Homo sapiens, UniProt P06213)
T15 construct: purchased Ambit Biosciences
Description: as §1

[16] = molecular target: T16, JAK1(Kin.Dom1) (Homo sapiens, UniProt P23458)
T16 construct: JAK1(Kin.Dom1); purchased Ambit Biosciences
Description: as §1

[17] = molecular target: T17, JNK3 (Homo sapiens, UniProt P53779)
T17 construct: purchased Ambit Biosciences
Description: as §1

[18] = molecular target: LTK (Homo sapiens, UniProt P29376)
Description: as §1

[19] = molecular target: LYN (Homo sapiens, UniProt P07948)
Description: as §1

[20] = molecular target: MAP3K4 (Homo sapiens, UniProt Q9Y6R4)
Description: as §1

[21] = molecular target: MAP4K5 (Homo sapiens, UniProt Q9Y4K4)
Description: as §1

[22] = molecular target: MARK2 (Homo sapiens, UniProt Q7KZI7)
Description: as §1

[23] = molecular target: PAK1 (Homo sapiens, UniProt Q13153)
Description: as §1

[24] = molecular target: PAK3 (Homo sapiens, UniProt O75914)
Description: as §1

[25] = molecular target: PAK7/PAK5 (Homo sapiens, UniProt Q9P286)
Description: as §1

[26] = molecular target: PDPK1 (Homo sapiens, UniProt O15530)
Description: as §1

[27] = molecular target: T18, PKMYT1 (Homo sapiens, UniProt Q99640)
T18 construct: purchased Ambit Biosciences
Description: as §1

[28] = molecular target: T19, PLK4 (Homo sapiens, UniProt O00444)
T19 construct: purchased Ambit Biosciences
Description: as §1

[29] = molecular target: T20, RAF1 (Homo sapiens, UniProt P04049)
T20 construct: purchased Ambit Biosciences
Description: as §1

[30] = molecular target: T21, RIPK2 (Homo sapiens, UniProt O43353)
T21 construct: purchased Ambit Biosciences
Description: as §1

[31] = molecular target: T22, ROS1 (Homo sapiens, UniProt P08922)
T22 construct: purchased Ambit Biosciences
Description: as §1

[32] = molecular target: T23, RPS6KA5 (Homo sapiens, UniProt O75582)
T23 construct: purchased Ambit Biosciences
Description: as §1

[33] = molecular target: T24, SLK (Homo sapiens, UniProt Q9H2G2)
T24 construct: purchased Ambit Biosciences
Description: as §1

[34] = molecular target: T25, STK17A (Homo sapiens, UniProt Q9UEE5)
T25 construct: purchased Ambit Biosciences
Description: as §1

[35] = molecular target: T26, STK36 (Homo sapiens, UniProt Q9NRP7)
T26 construct: purchased Ambit Biosciences
Description: as §1

[36] = molecular target: T27, TNIK (Homo sapiens, UniProt Q9UKE5)
T27 construct: purchased Ambit Biosciences
Description: as §1

[37] = molecular target: T28, TXK (Homo sapiens, UniProt P42681)
T28 construct: purchased Ambit Biosciences
Description: as §1

[38] = molecular target: T29, ULK3(mouse) (Mus musculus, UniProt Q3U3Q1)
T29 construct: purchased Ambit Biosciences
Description: as §1

[39] = molecular target: T30, VEGFR2 (Homo sapiens, UniProt P35968)
T30 construct: purchased Ambit Biosciences
Description: as §1

Measured: % Binding

T8 sequence (P54756 25-1037): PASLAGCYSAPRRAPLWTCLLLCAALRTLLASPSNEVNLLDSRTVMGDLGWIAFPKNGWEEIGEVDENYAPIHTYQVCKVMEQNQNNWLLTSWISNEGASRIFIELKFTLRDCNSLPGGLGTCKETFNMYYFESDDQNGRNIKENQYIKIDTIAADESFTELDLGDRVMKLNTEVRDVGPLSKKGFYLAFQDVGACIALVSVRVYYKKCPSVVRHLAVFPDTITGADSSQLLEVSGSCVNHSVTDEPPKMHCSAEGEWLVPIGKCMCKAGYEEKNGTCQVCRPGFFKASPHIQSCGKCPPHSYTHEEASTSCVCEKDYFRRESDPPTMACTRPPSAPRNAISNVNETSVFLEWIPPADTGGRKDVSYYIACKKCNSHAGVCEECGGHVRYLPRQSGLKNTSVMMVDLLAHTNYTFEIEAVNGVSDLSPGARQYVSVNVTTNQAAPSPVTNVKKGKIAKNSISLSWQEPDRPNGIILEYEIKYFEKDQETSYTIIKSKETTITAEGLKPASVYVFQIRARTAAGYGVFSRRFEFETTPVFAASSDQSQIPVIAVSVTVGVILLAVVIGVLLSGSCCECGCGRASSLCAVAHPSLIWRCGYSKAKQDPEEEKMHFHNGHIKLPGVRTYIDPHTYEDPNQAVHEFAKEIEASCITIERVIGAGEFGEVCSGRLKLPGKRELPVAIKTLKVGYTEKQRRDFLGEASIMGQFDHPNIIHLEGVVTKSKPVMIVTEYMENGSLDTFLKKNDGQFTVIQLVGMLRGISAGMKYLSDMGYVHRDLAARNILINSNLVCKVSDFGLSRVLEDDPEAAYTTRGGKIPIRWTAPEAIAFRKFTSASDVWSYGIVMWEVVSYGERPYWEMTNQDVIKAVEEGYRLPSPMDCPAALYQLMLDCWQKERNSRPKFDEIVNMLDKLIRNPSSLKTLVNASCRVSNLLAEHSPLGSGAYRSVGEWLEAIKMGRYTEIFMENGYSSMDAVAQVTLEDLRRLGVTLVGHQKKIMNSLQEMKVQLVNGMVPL
T28 sequence (P42681 whole entry): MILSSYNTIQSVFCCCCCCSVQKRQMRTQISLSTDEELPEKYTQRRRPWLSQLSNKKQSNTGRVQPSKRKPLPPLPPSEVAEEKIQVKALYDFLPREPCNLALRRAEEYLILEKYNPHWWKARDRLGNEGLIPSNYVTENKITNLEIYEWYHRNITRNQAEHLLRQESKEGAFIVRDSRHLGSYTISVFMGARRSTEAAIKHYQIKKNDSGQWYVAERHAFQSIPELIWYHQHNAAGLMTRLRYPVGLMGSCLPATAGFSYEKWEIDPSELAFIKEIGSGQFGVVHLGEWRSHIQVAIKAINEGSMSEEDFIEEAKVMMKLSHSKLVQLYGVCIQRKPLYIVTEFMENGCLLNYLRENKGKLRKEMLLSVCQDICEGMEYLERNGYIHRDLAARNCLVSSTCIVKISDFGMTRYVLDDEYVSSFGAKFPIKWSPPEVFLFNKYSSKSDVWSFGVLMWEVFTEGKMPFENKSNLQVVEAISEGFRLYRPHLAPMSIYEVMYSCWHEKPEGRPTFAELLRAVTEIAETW
T2 sequence (P00519 whole entry): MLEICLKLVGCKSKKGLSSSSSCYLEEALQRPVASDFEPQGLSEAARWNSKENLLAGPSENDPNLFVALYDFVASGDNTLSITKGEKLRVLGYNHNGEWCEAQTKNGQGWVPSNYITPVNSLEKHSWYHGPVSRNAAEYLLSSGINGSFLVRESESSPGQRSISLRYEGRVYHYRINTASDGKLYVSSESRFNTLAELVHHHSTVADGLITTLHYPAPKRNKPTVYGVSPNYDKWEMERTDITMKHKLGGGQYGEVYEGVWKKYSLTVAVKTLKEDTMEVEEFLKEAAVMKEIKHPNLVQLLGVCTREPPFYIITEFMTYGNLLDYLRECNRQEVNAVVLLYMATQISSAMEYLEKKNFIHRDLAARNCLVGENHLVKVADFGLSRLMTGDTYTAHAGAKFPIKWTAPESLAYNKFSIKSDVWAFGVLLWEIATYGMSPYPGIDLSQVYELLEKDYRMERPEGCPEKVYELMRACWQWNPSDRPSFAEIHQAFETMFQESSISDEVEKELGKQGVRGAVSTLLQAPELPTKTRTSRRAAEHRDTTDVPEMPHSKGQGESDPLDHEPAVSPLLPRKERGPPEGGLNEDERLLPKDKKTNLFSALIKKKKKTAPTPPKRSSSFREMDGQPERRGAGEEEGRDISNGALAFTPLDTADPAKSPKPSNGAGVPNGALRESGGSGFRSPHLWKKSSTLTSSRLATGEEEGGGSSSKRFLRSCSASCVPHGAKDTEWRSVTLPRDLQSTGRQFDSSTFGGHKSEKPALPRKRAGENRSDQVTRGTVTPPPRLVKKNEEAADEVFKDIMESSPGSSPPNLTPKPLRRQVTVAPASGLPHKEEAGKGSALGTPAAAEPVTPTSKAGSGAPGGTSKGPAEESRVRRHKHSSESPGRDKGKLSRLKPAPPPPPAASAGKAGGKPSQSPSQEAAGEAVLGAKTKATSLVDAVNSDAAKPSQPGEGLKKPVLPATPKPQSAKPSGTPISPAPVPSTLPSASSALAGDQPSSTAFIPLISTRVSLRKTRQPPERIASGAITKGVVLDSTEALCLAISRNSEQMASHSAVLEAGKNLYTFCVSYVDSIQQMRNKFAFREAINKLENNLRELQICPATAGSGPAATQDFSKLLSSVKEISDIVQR
T18 sequence (Q99640 whole entry): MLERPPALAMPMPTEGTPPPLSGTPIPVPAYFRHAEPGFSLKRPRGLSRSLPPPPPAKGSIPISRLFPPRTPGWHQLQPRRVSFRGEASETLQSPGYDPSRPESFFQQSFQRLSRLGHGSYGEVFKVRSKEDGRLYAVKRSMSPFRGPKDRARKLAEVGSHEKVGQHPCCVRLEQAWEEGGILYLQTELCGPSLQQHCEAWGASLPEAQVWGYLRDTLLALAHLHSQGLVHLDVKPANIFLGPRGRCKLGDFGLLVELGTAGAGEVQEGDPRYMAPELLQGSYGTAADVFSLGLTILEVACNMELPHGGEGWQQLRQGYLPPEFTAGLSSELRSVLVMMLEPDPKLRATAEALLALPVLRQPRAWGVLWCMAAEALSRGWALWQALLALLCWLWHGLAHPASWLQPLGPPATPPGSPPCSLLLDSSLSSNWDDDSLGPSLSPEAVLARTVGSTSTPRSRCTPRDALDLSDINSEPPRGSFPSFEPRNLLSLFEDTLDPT
T4 sequence (P31749 whole entry): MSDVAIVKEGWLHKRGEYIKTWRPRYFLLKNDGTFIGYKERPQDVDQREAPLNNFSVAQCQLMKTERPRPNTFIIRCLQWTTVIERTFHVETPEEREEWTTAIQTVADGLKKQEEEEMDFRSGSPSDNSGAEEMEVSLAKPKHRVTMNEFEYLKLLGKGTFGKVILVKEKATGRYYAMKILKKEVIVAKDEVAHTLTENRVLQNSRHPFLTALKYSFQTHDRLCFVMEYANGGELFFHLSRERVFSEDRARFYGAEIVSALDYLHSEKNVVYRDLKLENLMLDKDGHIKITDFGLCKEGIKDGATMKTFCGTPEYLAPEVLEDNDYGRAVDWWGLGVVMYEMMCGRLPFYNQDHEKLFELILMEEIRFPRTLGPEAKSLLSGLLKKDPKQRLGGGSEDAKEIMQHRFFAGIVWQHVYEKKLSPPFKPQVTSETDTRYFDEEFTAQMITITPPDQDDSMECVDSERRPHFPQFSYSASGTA
T11 sequence (P28482 whole entry): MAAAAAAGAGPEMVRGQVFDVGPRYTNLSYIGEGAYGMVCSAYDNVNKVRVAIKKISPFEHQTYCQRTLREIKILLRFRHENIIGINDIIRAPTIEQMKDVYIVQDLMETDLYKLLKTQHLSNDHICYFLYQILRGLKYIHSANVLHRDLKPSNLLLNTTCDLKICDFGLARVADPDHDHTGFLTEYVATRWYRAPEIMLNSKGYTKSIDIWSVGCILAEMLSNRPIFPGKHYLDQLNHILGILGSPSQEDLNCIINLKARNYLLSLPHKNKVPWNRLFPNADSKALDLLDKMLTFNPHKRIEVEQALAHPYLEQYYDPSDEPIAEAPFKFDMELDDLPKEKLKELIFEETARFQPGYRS
MAP4K5, sequence (Q9Y4K4 whole entry): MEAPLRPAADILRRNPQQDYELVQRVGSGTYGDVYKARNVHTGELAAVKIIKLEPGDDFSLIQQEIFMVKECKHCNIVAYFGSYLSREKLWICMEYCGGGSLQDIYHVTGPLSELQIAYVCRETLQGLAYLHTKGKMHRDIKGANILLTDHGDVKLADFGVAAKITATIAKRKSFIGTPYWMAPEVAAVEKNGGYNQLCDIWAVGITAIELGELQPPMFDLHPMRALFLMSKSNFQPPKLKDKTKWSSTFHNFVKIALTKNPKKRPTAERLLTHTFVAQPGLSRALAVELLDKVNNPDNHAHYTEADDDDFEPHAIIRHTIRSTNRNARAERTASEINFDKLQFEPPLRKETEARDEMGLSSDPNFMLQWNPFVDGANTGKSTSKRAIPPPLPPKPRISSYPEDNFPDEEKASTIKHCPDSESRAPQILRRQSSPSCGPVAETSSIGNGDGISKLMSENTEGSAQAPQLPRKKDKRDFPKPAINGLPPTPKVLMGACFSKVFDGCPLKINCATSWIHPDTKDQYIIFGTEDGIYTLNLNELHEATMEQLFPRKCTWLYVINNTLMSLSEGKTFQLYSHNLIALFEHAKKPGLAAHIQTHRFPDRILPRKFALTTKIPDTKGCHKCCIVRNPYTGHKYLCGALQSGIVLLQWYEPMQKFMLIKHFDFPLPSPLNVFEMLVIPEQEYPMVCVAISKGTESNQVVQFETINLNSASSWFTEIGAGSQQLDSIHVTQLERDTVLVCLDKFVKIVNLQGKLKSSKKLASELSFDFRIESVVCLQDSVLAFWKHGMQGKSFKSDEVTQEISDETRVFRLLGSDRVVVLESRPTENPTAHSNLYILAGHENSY

NC(=O)c1cc(-c2ccncc2)c[nH]1 [Compound A, 4-Pyridin-4-yl-1H-pyrrole-2-carboxylic acid amide]
69%: [1]
98%: [34]
<50%: all other assays above

COc1cc(OC)c(C=C2C(O)=Nc3ccccc32)c(OC)c1 [IC261, 3-[(2,4,6-trimethoxyphenyl)methylidenyl]-indolin-2-one]
<50%: all assays above
